Patent publication US11548923B2, “Peptide compositions and methods of use thereof for disrupting TEAD interactions” (Fred Hutchinson Cancer Center, priority 2017, dated 2023)
Entries after “also recorded” stand apart in the source; their conditions may differ. Where a SMILES comes first, the peptide text is derived from it. Bridges are numbered along the chain shown (N, C = ends).

How the values were obtained:
biotinylated TEAD = molecular target: T1, biotinylated TEAD (Homo sapiens, UniProt P28347); experiment: Surface plasmon resonance (SPR) binding of soluble peptides to captured biotinylated TEAD; details: soluble peptides
T1 construct: GST; made in house; host or cells: Hi5 insect cells (baculovirus, BacMagic, pIEX-BAC3)

TEAD [1] = molecular target: T2, TEAD (Homo sapiens, UniProt P28347); experiment: Mammalian surface display (SDGF vector, HEK-293 cells) TEAD-binding flow cytometry; details: for TEAD binding of HEK-293 cells expressing SDGF-peptide: stained with 200 nM AF647-Streptavidin-TEAD; for TEAD binding of cells displaying variant versus parent peptide: HEK-293 suspension cells transfected with SDGF constructs
T2 construct: GST; made in house; host or cells: Hi5 insect cells (baculovirus, BacMagic, pIEX-BAC3)

[2] = tested on: 8×GTIIC (TEAD luciferase reporter); experiment: Cytosolic peptide expression with 8×GTIIC TEAD luciferase reporter; type: cell-based; details: mCherry-T2a-peptide co-transfected with FLAG-YAP and 8×GTIIC; vs. YAP only
Description: Cytosolic Peptide Expression. Peptides, FLAG-tagged or not, can be cloned into a mammalian expression vector consisting of a CMV promoter, then a monocistronic mCherry-T2a-peptide sequence. These can be transfected, along with (where indicated) pFLAG-YAP1 and 8×GTIIC-luciferase (Addgene plasmid #34615) into 293T cells. 24 hrs post-transfection, cells can be either harvested for luminescence (ONE-Glo, Promega) or Western blot (anti-FLAG M2, Sigma). Protein Transfection with dfTAT Reagent. Solution was diluted to 50 μM in PBS for a 10× working stock, for a final concentration of 5 μM in culture wells. […] For confirmation of peptide cell penetration, 293T and HeLa cells can be plated in a 96-well plate in DMEM with 10% FBS, 1× penicillin/streptomycin (Pen/Strep) and grown overnight to ˜50% confluence. Cells can be gently washed 3 times with PBS containing 1 mM CaCl2) and 0.5 mM MgCl2, then 2 times in serum-free DMEM. Wells (50 μL total) received either 5 μM (final) peptide in PBS, or PBS alone, and can also receive either 5 μM (final) dfTAT reagent in PBS, or PBS alone, before a 60 minute incubation at 37° C. and 5% CO2 in a humidified tissue culture incubator. After incubation, cells can be gently washed 3 times in PBS, which can be followed by fixation at 4° C. for 10 minutes with 4% formaldehyde in PBS. […]

YAP-TEAD interaction = molecular target: T3, YAP-TEAD interaction (Homo sapiens, UniProt P28347); experiment: YAP-TEAD disruption co-immunoprecipitation (Myc-TEAD resin, FLAG-YAP lysate); type: biochemical; details: for FLAG-YAP pull-down with Myc-TEAD resin in the presence of peptide: Silver stain and Western blot
T3 construct: expressed in transfected cells; host or cells: 293T cells (lysates)

TEAD [3] = molecular target: T2, TEAD; experiment: TEAD binding of SDGF-displayed peptides after exposure to reducing agent; details: 5 minutes, 20 nM TEAD
Procedure: Peptides of this disclosure were also tested to evaluate if binding to TEAD was affected by exposure of peptide to reducing conditions. […] Cultures were grown for two days followed by incubation in 10 mM GSH or 10 mM DTT. Finally, cells were stained with TEAD. FIG. 13 illustrates binding to TEAD after cells expressing SDGF-SEQ ID NO: 9 are exposed to a reducing agent. FIG. 13A illustrates a flow cytometry plot showing binding of HEK-293 suspension cells transfected with SDGF-SEQ ID NO: 1 (GFP) incubated for 5 minutes in PBS, 10 mM DTT, or 10 mM glutathione (GSH) before staining with 20 nM biotinylated TEAD and 20 nM AF647-streptavidin. FIG. 13B illustrates a flow cytometry plot showing binding of HEK-293 suspension cells transfected with SDGF-SEQ ID NO: 9 (GFP) incubated for 5 minutes in PBS, 10 mM DTT, or 10 mM glutathione (GSH) before staining with 20 nM biotinylated TEAD and 20 nM AF647-streptavidin.

[4] = molecular target: T4, TEAD binding to surface-displayed YAP (Homo sapiens, UniProt P28347); experiment: Competitive binding of peptides to TEAD versus cell surface-displayed YAP (flow cytometry)
T4 construct: made in house; host or cells: TEAD: Hi5 insect cells
Procedure: FIG. 11D illustrates a flow cytometry plot of cells expressing SDGF-YAP that were incubated with 5 nM TEAD and then washed. Cells were immediately stained with AF647-streptavidin and analyzed for YAP-expressing cells that have bound TEAD. FIG. 11E illustrates a flow cytometry plot of cells expressing SDGF-YAP that were incubated with 5 nM TEAD and then washed. Cells were incubated on ice for 1 hour, stained with AF647-streptavidin and analyzed for YAP-expressing cells that have bound TEAD. FIG. 11F illustrates a flow cytometry plot of cells expressing SDGF-YAP that were incubated with 5 nM TEAD and then washed. […] FIG. 11G illustrates a flow cytometry plot of cells expressing SDGF-YAP that were incubated with 5 nM TEAD and then washed.

YAP:TEAD dimers = molecular target: T5, YAP:TEAD dimers (Homo sapiens, UniProt P28347); experiment: YAP:TEAD proximity ligation assay (PLA) in HeLa cells; type: cell-based; details: 5 μM peptide with 5 μM dfTAT
T5 construct: endogenous in cells; host or cells: HeLa cells
Procedure: Proximity Ligation Assay. […] HeLa cells can be seeded in an 8-well chamber slide (Nunc Lab-Tek II) in DMEM+10% FBS and 1× Pen/Strep, and can be grown overnight, reaching ˜50% confluence. Cells can be gently washed 3 times with PBS containing 1 mM CaCl2 and 0.5 mM MgCl2, then 2 times in serum-free DMEM. Wells (120 μL total) can receive either 5 μM (final) peptide in PBS, or PBS alone, and can also receive either 5 μM (final) dfTAT reagent in PBS, or PBS alone, before a 90 minute incubation at 37° C. and 5% CO2 in a humidified tissue culture incubator. After incubation, cells can be gently washed 3 times in PBS, followed by fixation at 4° C. for 10 minutes with 4% formaldehyde in PBS. […]
PLA can be performed using the Duolink In Situ Fluorescence (Far Red) kit according to manufacturer's instructions, using supplied buffers without substitution and at recommended volumes for 1 cm^2 samples. […] For quantitation of nuclear speckles in ImageJ, UV and Cy5.5 filtered images can be Z-projected (maximum intensity), and can be processed using a custom macro to identify nuclear boundaries (UV channel) and speckles (Cy5.5 channel). […]
Proximity ligation assay (PLA) in HeLa cells was performed using primary antibodies against YAP and TEAD, in which speckles (APC channel) overlapping DAPI-stained nuclei (UV channel) were produced. […] All P-values were determined by two-tailed T-test.

T2 sequence (P28347 209-426): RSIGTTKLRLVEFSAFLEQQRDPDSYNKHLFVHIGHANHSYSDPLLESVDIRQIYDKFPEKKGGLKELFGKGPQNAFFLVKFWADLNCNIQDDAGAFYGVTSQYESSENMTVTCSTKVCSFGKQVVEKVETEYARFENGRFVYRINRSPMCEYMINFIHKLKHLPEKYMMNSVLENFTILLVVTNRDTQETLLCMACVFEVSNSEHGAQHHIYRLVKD
T1 sequence (P28347 209-426): as above
T3 sequence (P28347 whole entry): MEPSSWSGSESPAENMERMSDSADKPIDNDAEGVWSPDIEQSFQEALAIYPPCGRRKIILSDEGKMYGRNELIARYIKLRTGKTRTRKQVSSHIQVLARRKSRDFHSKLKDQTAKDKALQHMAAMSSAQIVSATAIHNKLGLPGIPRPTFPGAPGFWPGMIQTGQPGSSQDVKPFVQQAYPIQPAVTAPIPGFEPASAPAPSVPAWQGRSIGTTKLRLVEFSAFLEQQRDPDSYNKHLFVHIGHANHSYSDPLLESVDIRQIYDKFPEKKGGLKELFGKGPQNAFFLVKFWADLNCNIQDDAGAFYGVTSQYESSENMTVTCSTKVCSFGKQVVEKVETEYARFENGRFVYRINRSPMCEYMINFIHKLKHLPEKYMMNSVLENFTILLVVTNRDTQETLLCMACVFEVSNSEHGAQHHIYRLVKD
T4 sequence (P28347 209-426): as the sequence (P28347 209-426) above
T5 sequence (P28347 whole entry): as the sequence (P28347 whole entry) above

CC[C@H](C)[C@@H]1NC(=O)[C@H](C)NC(=O)[C@H](CO)NC(=O)[C@@H]2CSSC[C@@H]3NC(=O)[C@H](CCC(N)=O)NC(=O)[C@H](CC(N)=O)NC(=O)[C@H](CC(N)=O)NC(=O)[C@H](CCC(N)=O)NC(=O)[C@H](CSSC[C@H](NC(=O)[C@H](CCC(N)=O)NC(=O)[C@H](CC(N)=O)NC(=O)[C@H](CC(=O)O)NC(=O)[C@H](Cc4ccc(O)cc4)NC(=O)[C@H](CC(C)C)NC(=O)CNC(=O)[C@H](Cc4ccccc4)NC(=O)[C@H](CO)NC(=O)CN)C(=O)N[C@@H](C)C(=O)N[C@@H]([C@@H](C)O)C(=O)N[C@@H](CO)C(=O)N[C@@H](CC(=O)O)C(=O)N[C@@H](C)C(=O)N2)NC(=O)[C@H](CCCCN)NC(=O)CNC(=O)[C@H](CCC(N)=O)NC(=O)CNC(=O)[C@H](CO)NC(=O)CNC(=O)[C@H]([C@@H](C)O)NC(=O)[C@H](Cc2c[nH]c4ccccc24)NC(=O)[C@H](Cc2ccc(O)cc2)NC(=O)[C@H](CCCCN)NC(=O)[C@H](CSSC[C@@H](C(=O)N[C@@H](Cc2ccc(O)cc2)C(=O)O)NC(=O)[C@H](CCCNC(=N)N)NC3=O)NC1=O [SEQ ID NO: 3] (H-GSFGLYDNQCATSDACSAICKYWTGSGQGKCQNNQCRCY-OH; disulfide 10-31, 16-36, 20-38)
affinity/binding to TEAD as compared to a peptide of SEQ ID NO: 1 (biotinylated TEAD): lower binding affinity for TEAD
TEAD binding of HEK-293 cells expressing SDGF-peptide (TEAD [1]): displayed binding to TEAD

GSLERLKKCCNQGLDCEEARWKCEAEALFQGKNRETCLEEC [SEQ ID NO: 40]
TEAD binding of cells displaying variant versus parent peptide (TEAD [1]): loss of binding to TEAD

GSLERLKKCCNQGLDCEEARWKCELEAAFQGKNRETCLEEC [SEQ ID NO: 41]
TEAD binding of cells displaying variant versus parent peptide (TEAD [1]): loss of binding to TEAD

GSLERLKKCCNQGLDCEEARWKCELEALAQGKNRETCLEEC [SEQ ID NO: 42]
TEAD binding of cells displaying variant versus parent peptide (TEAD [1]): loss of binding to TEAD

GSLERLKKCCNQGLDCEEARWKCELEALFQGKNRETCLEEC [SEQ ID NO: 2]
TEAD binding of HEK-293 cells expressing SDGF-peptide (TEAD [1]): displayed binding to TEAD

GSLERLKKSSNQGLDSEEARWKSELEALFQGKNRETSLEES [SEQ ID NO: 185]
TEAD binding of cells displaying variant versus parent peptide (TEAD [1]): loss of binding to TEAD

GSPDEYIERAKECCKKGDIQCCLRIFDESKDPNVMLICLFCW [SEQ ID NO: 12]
TEAD luciferase reporter activity (relative luminescence units) [2]: reduced

GSPDEYIERAKECCKKGDIQCCLRYFAESGDPNVMLICLFCP [SEQ ID NO: 4]
TEAD binding of cells displaying variant versus parent peptide (TEAD [1]): loss of binding to TEAD

GSPDEYIERAKECCKKGDIQCCLRYFEESGDPNVALICLFCP [SEQ ID NO: 6]
TEAD binding of cells displaying variant versus parent peptide (TEAD [1]): loss of binding to TEAD

GSPDEYIERAKECCKKGDIQCCLRYFEESGDPNVMLICAFCP [SEQ ID NO: 5]
affinity/binding to TEAD as compared to a peptide of SEQ ID NO: 1 (biotinylated TEAD): reduced affinity for TEAD
TEAD binding of cells displaying variant versus parent peptide (TEAD [1]): marginal loss of binding to TEAD

GSPDEYIERAKECCKKGDIQCCLRYFEESGDPNVMLICLACP [SEQ ID NO: 7]
affinity/binding to TEAD as compared to a peptide of SEQ ID NO: 1 (biotinylated TEAD): reduced affinity for TEAD
TEAD binding of cells displaying variant versus parent peptide (TEAD [1]): loss of binding to TEAD
FLAG-YAP pull-down with Myc-TEAD resin in the presence of peptide (YAP-TEAD interaction): not pulled down

GSPDEYIERAKECCKKGDIQCCLRYFEESGDPNVMLICLFCP [SEQ ID NO: 1]
binding to TEAD after reducing agent treatment (TEAD [3]; 10 mM DTT): partial loss in binding to TEAD
binding to TEAD after reducing agent treatment (TEAD [3]; 10 mM GSH): no loss in binding to TEAD
TEAD binding profile of displayed peptide (TEAD [1]; 20 nM TEAD concentration and 2-step staining): apparent but weak
TEAD binding of HEK-293 cells expressing SDGF-peptide (TEAD [1]): displayed binding to TEAD
FLAG-YAP pull-down with Myc-TEAD resin in the presence of peptide (YAP-TEAD interaction): not pulled down
inhibition of FLAG-YAP binding to Myc-TEAD resins (YAP-TEAD interaction; dilution series of peptide, Western blot): dose-dependent inhibition

GSPDEYIERAKECCKKQDIQCCLRIFDESKDPNVMLICLFCP [SEQ ID NO: 11]
TEAD binding with the extra wash step (TEAD [1]; 20 nM TEAD, Extra Wash protocol): diminished binding

GSPDEYIERAKECCKKQDIQCCLRIFDESKDPNVMLICLFCW [SEQ ID NO: 9]
binding to TEAD after reducing agent treatment (TEAD [3]; 10 mM DTT): no loss in binding to TEAD
binding to TEAD after reducing agent treatment (TEAD [3]; 10 mM GSH): no loss in binding to TEAD
TEAD binding to YAP-displaying cells ([4]; YAP-displaying cells first incubated with TEAD prior to addition of peptide): near complete elimination of TEAD binding to YAP
TEAD binding to YAP-displaying cells ([4]; cells incubated with peptide, then 5 nM TEAD): near complete elimination of TEAD binding to YAP
YAP:TEAD PLA speckles per nucleus (YAP:TEAD dimers): significantly reduces YAP:TEAD dimers in the nucleus; also recorded: significantly reduced
mean fluorescence intensity (MFI) of TEAD staining normalized to SEQ ID NO: 1 (TEAD [1]; 20 nM TEAD, Normal and Extra Wash protocols): performed the best

GSPDEYIERAKESSKKGDIQSSLRYFEESGDPNVMLISLFSP [SEQ ID NO: 184]
TEAD binding of cells displaying variant versus parent peptide (TEAD [1]): loss of binding to TEAD
